Test results taken from PubChem BioAssay (NCI).
“And” between values parts separate entries of the source, which are not always exact repeats. Identical values can stand only once.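 Method: 48-hour compound exposure of cells in 96-well plates, five concentrations, linear interpolation of endpoints. Abbreviation: GI50, concentration required for 50% inhibition of growth. TGI denotes the concentration required for complete inhibition of growth.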

What was measured:
Assay in all cases: inhibition of tumour cell growth, NCI panel, 48 h
[1] = tested on: DU-145 prostate
[2] = tested on: HS 578T breast
[3] = tested on: MDA-MB-231 breast
[4] = tested on: MDA-MB-435
[5] = tested on: T-47D breast
[6] = tested on: HOP-18 NSCLC
[7] = tested on: KM20L2 colon
[8] = tested on: DMS 273 small cell lung
[9] = tested on: M19-MEL melanoma
[10] = tested on: SNB-78 CNS

SMILES	GI50 [1]	TGI [1]	GI50 [2]	TGI [2]	GI50 [3]	GI50 [4]	TGI [4]	GI50 [5]	TGI [5]	TGI [3]	GI50 [6] [µM]	TGI [6] [µM]	GI50 [7] [µM]	TGI [7] [µM]	TGI [8] [µM]	TGI [9] [µM]	TGI [10] [µM]	GI50 [8] [µM]	GI50 [10] [µM]
COc1ccc(F)c(F)c1C(=O)c1cnc(NC2CCN(S(C)(=O)=O)CC2)nc1N	1.7 µM and 0.623 µM	> 71.2 µM	1.52 µM and 0.695 µM	6.12 µM and > 8.4 µM	0.805 µM and 0.262 µM	0.419 µM and 0.309 µM	3.72 µM and > 4.89 µM	1.04 µM and 0.678 µM	11.8 µM and > 8.01 µM	–	–	–	–	–	–	–	–	–	–
CN1c2ccccc2SC2C(c3ccccc3)=NOC21 (centres undefined)	–	> 100 µM	–	> 100 µM	–	–	–	–	94.3 µM	> 100 µM	–	–	–	–	–	–	–	–	–
CCN(CC)c1ccc(/C=C/C2=[N+](C)c3ccccc3C2(C)C)c(C)c1	0.0985 µM	11.6 µM	0.129 µM	16.5 µM	0.101 µM	0.0653 µM	1.32 µM	< 0.0272 µM	1.61 µM	2.27 µM	–	–	–	–	–	–	–	–	–
CC(C)[O-].CC(C)[O-].O=c1cccccc1[O-].O=c1cccccc1[O-].[Ti+4]	–	–	–	–	–	–	–	–	–	–	> 100	> 100	46.1	> 100	–	–	–	–	–
CC1c2ccccc2N=C2SC(=S)N3CCN=C3N21 (centres undefined)	> 100 µM	> 100 µM	–	–	> 100 µM	> 100 µM	> 100 µM	> 100 µM	> 100 µM	> 100 µM	–	–	–	–	–	–	–	–	–
CC(C)(C)OC(=O)NC1CCCC1=O (centres undefined)	–	–	–	–	–	–	–	–	–	–	–	–	–	> 100	> 100	> 100	> 100	–	–
[2H]c1nc(=Nc2cc(NC(=O)C=C)c(N(C)CCN(C)C)cc2OC)[nH]c(-c2cn(C([2H])([2H])[2H])c3ccccc23)c1[2H]	1.51 µM	11.8 µM	2.59 µM	9.74 µM	1.27 µM	1.62 µM	3.09 µM	1.07 µM	2.83 µM	2.81 µM	–	–	–	–	–	–	–	–	–
O=C(/C=C/c1cccc(O)c1)c1cccc(-n2cc(-c3ccc4ccccc4c3)[nH]c2=O)c1	1.75 µM	3.65 µM	2.01 µM	5.9 µM	1.66 µM	1.71 µM	6.31 µM	1.11 µM	3.84 µM	4.9 µM	–	–	–	–	–	–	–	–	–
CCn1c(-c2nonc2N)nc2ccncc21	> 25 µM	> 25 µM	> 25 µM	> 25 µM	> 25 µM	> 25 µM	> 25 µM	> 25 µM	> 25 µM	> 25 µM	–	–	–	–	–	–	–	–	–
COc1c(O)c(OC)c2oc(-c3ccc(O)cc3)c(OC)c(=O)c2c1O	–	> 100 µM	–	57 µM	–	–	> 100 µM	–	55.7 µM	> 100 µM	–	–	–	–	–	–	–	–	–
CN(C)C(=S)Nc1nnc(Nc2ccccc2)s1	–	–	–	–	–	–	–	–	–	–	–	> 100	–	> 100	> 100	> 100	> 100	–	–
COc1ccc2c(NCCCCCCNc3c4ccccc4nc4cc(OC)ccc34)c3ccccc3nc2c1	–	1.47 µM	–	0.937 µM	–	–	1.26 µM	–	6.16 µM	0.385 µM	–	10.9	–	1.17	–	–	–	–	–
Nc1cc(-c2ccc(Cl)cc2)nn1-c1nnc(/C=C/c2ccco2)c(=O)[nH]1	4.5 µM	28.2 µM	10.2 µM	> 64.3 µM	11.2 µM	5.9 µM	> 100 µM	5.35 µM	> 66.5 µM	> 100 µM	–	–	–	–	–	–	–	–	–
O=[N+]([O-])c1ccc(-c2cc3c(Nc4ccc(Cl)c(C(F)(F)F)c4)ncnc3s2)cc1	1.63 µM	> 100 µM	–	–	0.382 µM	2.24 µM	> 100 µM	0.407 µM	6.1 µM	1.63 µM	–	–	–	–	–	–	–	–	–
N.N.N.N.N.O=S(=O)([O-])S(=O)(=O)[O-].[Co+3]	–	–	–	–	–	–	–	–	–	–	–	–	> 100	> 100	> 100	–	> 100	> 100	> 100
O=C(c1cccs1)C1NO[N+]([O-])=C1c1cccs1 (centres undefined)	3.76 µM	10.7 µM	2.82 µM	14.6 µM	11.8 µM	5.29 µM	16.3 µM	2.2 µM	5.09 µM	25 µM	–	–	–	–	–	–	–	–	–
CCOc1ccc(Nc2c3ccccc3nc3ccccc23)cc1	0.843 µM and 1.01 µM	9.34 µM and 6.59 µM	1.23 µM and 0.29 µM	–	1.91 µM and 0.959 µM	0.0382 µM and 0.0574 µM	0.359 µM and 0.279 µM	1.34 µM and 0.916 µM	3.78 µM and 3.83 µM	9.67 µM and 14.5 µM	–	–	–	–	–	–	–	–	–
CC(C)[O-].CC(C)[O-].CN(CCN(C)Cc1cc(F)cc(F)c1[O-])Cc1cc(F)cc(F)c1[O-].[Ti+4]	1.47 µM	7.06 µM	1.62 µM	6.22 µM	1.67 µM	0.585 µM	2.1 µM	0.416 µM	8.31 µM	10.5 µM	–	–	–	–	–	–	–	–	–
c1ccc(-c2nc(N3CCCNCC3)c3nc(-c4ccccc4)oc3n2)cc1	1.8 µM	3.26 µM	1.86 µM	3.94 µM	1.72 µM	1.64 µM	3.08 µM	1.78 µM	3.64 µM	3.21 µM	–	–	–	–	–	–	–	–	–
O=C1c2ccccc2-c2c1c1c(NCCCO)nc3ccccc3c1n2Cc1ccccc1	16.3 µM	34.1 µM	40.6 µM	> 100 µM	20.7 µM	36 µM	> 100 µM	21 µM	46.4 µM	42.7 µM	–	–	–	–	–	–	–	–	–
CC(C)Oc1ccc(C(=O)Cn2ccnc2)cc1-n1c(CN2CCN(C(=O)COc3ccc(Cl)cc3)CC2)nc2ccccc2c1=O	9.59 µM	> 100 µM	15.8 µM	46.6 µM	4.32 µM	15.6 µM	33.6 µM	14.3 µM	> 95.4 µM	19.7 µM	–	–	–	–	–	–	–	–	–
Cc1ccc(-n2nc(C(C)(C)C)cc2NC(=O)NCc2cc(F)ccc2Oc2ccc3c(cnn3CCO)c2)cc1	> 10 µM and 7.2 µM	> 100 µM	> 10 µM and 10.1 µM	> 100 µM	2.6 µM and 2.57 µM	3.37 µM and 2.75 µM	> 62.5 µM	3.79 µM and 3.76 µM	> 10 µM and 32.7 µM	> 58.9 µM	–	–	–	–	–	–	–	–	–
O=C(Cl)C1=C(c2ccccc2)C1c1ccccc1 (centres undefined)	–	> 100 µM	–	> 100 µM	–	–	> 100 µM	–	> 100 µM	> 100 µM	–	–	–	–	–	–	–	–	–
Cc1cccc(C)c1N1C(=O)C(=O)C(c2nc3ccccc3s2)C(=Nc2cccc3c(=O)[nH][nH]c(=O)c23)C1=O (centres undefined)	–	–	–	–	–	–	–	–	–	–	–	> 100	–	> 100	> 100	> 100	> 100	–	–
